Measured values as given in US20230046018A1, “BIARYL COMPOUND AS PAN-RAF KINASE INHIBITOR” (MEDSHINE DISCOVERY INC., priority 2019, published 2023).
pIC50: −log10 of the molar value. Read-outs that look alike come from different tables or passages of the source.

Tests used:
cRAF protein = biological target: T1, cRAF protein (Homo sapiens, UniProt P04049); experiment: c-RAF enzyme inhibitory activity (ADP-Glo, MEK1 substrate); assay type: biochemical; details: MEK1 and ATP substrate
T1 construct: purchased Creative BioMart RAF1-416H
T1 sequence (P04049 whole entry): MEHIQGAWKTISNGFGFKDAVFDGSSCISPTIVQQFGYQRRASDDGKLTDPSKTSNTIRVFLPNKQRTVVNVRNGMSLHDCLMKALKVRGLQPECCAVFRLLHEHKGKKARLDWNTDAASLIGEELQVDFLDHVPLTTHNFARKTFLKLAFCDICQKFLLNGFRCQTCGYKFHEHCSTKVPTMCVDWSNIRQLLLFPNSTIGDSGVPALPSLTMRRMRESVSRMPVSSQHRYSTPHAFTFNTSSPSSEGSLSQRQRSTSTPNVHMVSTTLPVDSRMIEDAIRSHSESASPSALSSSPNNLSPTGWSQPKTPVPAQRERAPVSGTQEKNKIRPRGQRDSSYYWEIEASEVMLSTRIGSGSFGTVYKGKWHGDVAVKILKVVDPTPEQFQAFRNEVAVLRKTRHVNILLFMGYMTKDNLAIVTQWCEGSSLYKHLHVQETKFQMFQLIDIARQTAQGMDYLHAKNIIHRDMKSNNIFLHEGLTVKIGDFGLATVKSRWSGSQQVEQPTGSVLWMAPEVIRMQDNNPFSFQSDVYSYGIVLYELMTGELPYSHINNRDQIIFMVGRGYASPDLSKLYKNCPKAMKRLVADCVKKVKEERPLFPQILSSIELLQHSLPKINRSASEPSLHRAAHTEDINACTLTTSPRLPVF
Protocol: Experiments for c-RAF Enzyme Inhibitory Activity
the compounds to be tested and reference compounds were diluted to 100 μM with DMSO, and the compounds were further subjected to a 3-fold gradient dilution using Echo to obtain target plates with 11 concentration gradients.
1) buffer formulation: 50 mM Tris-HCl (pH 7.4), 3.5 mM MgCl2, 150 mM NaCl, 1 mM DTT, 0.02% Triton X-100, H2O;
7) after 1 hour, the plate was read on Envision.

Ca1u-6 (Kras^Q61K) = Ca1u-6 (Kras^Q61K) antiproliferative activity (CellTiter Glo); assay type: cell-based, human; details: Ca1u-6 (Kras^Q61K) cells, three days, read-out: Calu-6 anti-proliferative activity IC50
Protocol: Experiments for Ca1u-6 (Kras^Q61K) Antiproliferative Activity
(1) cell medium: 89% EMEM, 10% fetal bovine serum and 1% penicillin-streptomycin;
(2) the original medium in the cell culture flask was removed; the cells were digested with trypsin and then counted; and the cell suspension was diluted with the medium to a cell density of 3.75×10^4 cells per milliliter required for plating;
(§1) (3) 100 μL of the medium was added to the outermost circle of wells of the cell plate; 80 μL of the cell suspension was added to other wells; and the plate was cultured overnight in a 37° C. incubator with 5% CO2.
the compounds were subjected to a gradient dilution and then supplemented using Echo; and the cell plate was put back into the incubator for three days.
(§2) adding CTG and reading the plate involve adding 20 μL of CellTiterGlo to each well of the cell plate, shaking the plate for 10 min in the dark, and reading the plate on Victor Nivo.

HCT-116(Kras^G13D) = experiment: HCT-116 (Kras^G13D) antiproliferative activity (CellTiter Glo); assay type: cell-based; details: HCT-116 (Kras^G13D) cells, three days
Protocol: Experiments for HCT-116(Kras^G13D) Antiproliferative Activity
(1) cell medium: 89% Mc'Coy 5A, 10% fetal bovine serum and 1% penicillin-streptomycin;
(2) the original medium in the cell culture flask was removed; the cells were digested with trypsin and then counted; and the cell suspension was diluted with the medium to a cell density of 2.5×10^4 cells per milliliter required for plating;
as §1
the compounds were subjected to a gradient dilution and then supplemented; and the cell plate was put back into the incubator for three days.
as §2

[1] = system: ERK phosphorylation in HCT116(Kras^G13D); experiment: HCT116 (Kras^G13D) ERK phosphorylation inhibition (HTRF); assay type: cell-based, human; details: 1 hour with compound, read-out: HCT-116 ERK phosphorylation inhibitory activity IC50
Protocol: Experiments for HCT116(Kras^G13D) ERK Phosphorylation Inhibition
(§3) 1) cells were resuscitated, cultured to a logarithmic growth phase, then digested with trypsin and seeded in a 96-well plate, and the plate was incubated overnight in an incubator;
(§4) 2) serial gradients of compounds dissolved in DMSO were added to the 96-well plate, which was then put back into the incubator for 1 hour;
3) the cell plate was taken out; the supernatant was removed; and the cells were incubated and lysed by adding cell lysates (containing 1% blocking peptide) for 30 minutes at room temperature;
(§5) 4) 16 μL of cell lysates per well was transferred to the HTRF plate, and then 4 μL of the mixed antibody solution formulated thereby was added;
(§6) 5) after overnight incubation, the plate was read on Envision; the fitted curves were obtained according to ratio (the ratio of Ex665/Ex615 fluorescence intensity); and EC50 was calculated with the four-parameter fitting formula, i.e., Y=Bottom+(Top−Bottom)/(1+10^((LogEC50−X)*Hill Slope)) on Graphpad.

[2] = system: ERK phosphorylation in Ca1u-6(Kras^Q61K); experiment: Ca1u-6 (Kras^Q61K) ERK phosphorylation inhibition (HTRF); assay type: cell-based, human; details: 1 hour with compound, read-out: Calu-6 ERK phosphorylation inhibitory activity IC50
Protocol: Experiments for Ca1u-6(Kras^Q61K) ERK Phosphorylation Inhibition
as §3, §4
3) the cell plate was taken out; and the cells were incubated and lysed by adding cell lysates (containing 1% blocking peptide) for 30 minutes at room temperature;
as §5, §6

[3] = system: human lung cancer Ca1u-6 subcutaneous xenograft tumor; experiment: In vivo pharmacodynamics, human lung cancer Ca1u-6 subcutaneous xenograft tumor BALB/c nude mouse model; details: 100 mg/kg PO QD × 21 days, Ca1u-6 xenograft, BALB/c nude mice
Protocol: When the cell saturation was 80% to 90%, and the number reached the requirement, the cells were collected, counted and inoculated.
Tumor diameter was measured twice a week with a vernier caliper.
TGI (%) reflected the tumor growth inhibition rate.

[4] = In vivo pharmacokinetics in mice; details: mouse, plasma, female CD-1 mice; for AUC: read-out: Curve area AUC
Excerpt: Experiments for In Vivo Pharmacokinetics in Mice
2) Experimental animals: 4 female CD-1 mice, which were divided into 2 groups, 2 mice in each group;
3) Drug formulation: An appropriate amount of the drug was weighed and dissolved in an aqueous solution of solutol (5% by volume), DMSO (5% by volume) and PEG-300 (25% by volume) for injection administration. An appropriate amount of the drug was weighed and dispersed in a 5% solutol aqueous solution (80% by volume), and then PEG-400 (20% by volume) was added; the mixture was mixed well and used for intragastric administration. Solutol is polyethylene glycol-15-hydroxystearate.
The animals in the first group were administered the compound at a dose of 2 mg/kg at a concentration of 1 mg/mL by intravenous administration. Plasma samples were collected from the animals at 0.117, 0.333, 1, 2, 4, 7 and 24 hours after administration. The animals in the second group were administered the compound at a dose of 100 mg/kg at a concentration of 10 mg/mL by intragastric administration. Plasma samples were collected from the animals at 0.0833, 0.25, 0.5, 1, 2, 4, 6, 8 and 24 hours after administration. The drug concentration at each point was determined by the LC-MS/MS method, and kinetic parameters of the tested drug were as follows: […]

[5] = Homo sapiens, HCT-116, 1 h, HCT116 (Kras^G13D) cells
[6] = Homo sapiens, Calu-6, 1 h, Ca1u-6 (Kras^Q61K) cells
[7] = Homo sapiens, HCT-116, HCT116 (Kras^G13D) cells

Compound | pIC50 (cRAF protein) | pIC50 (Ca1u-6 (Kras^Q61K); Homo sapiens, Calu-6, 72 h) | pIC50 (HCT-116(Kras^G13D); Homo sapiens, 72 h) | pIC50 [2, 6] | other results
Cc1ccc(NC(=O)c2ccnc(C(F)(F)F)c2)cc1-c1cc(OCCO)nc(C23CCOCC2C3)c1 (single isomer, unassigned) [Compound 1A] | 8.60 | 5.92 | 6.22 | 6.66 | pIC50 [1, 5]: 6.85
Cc1ccc(NC(=O)c2ccnc(C(F)(F)F)c2)cc1-c1cc(OCCO)nc(C23CCOCC2C3)c1 (single isomer, unassigned) [Compound 1B] | 8.70 |  |  |  | pIC50 (Ca1u-6 (Kras^Q61K)): 6.02; pIC50 (HCT-116(Kras^G13D)): 6.22; pIC50 ([1]; HCT116 (Kras^G13D) cells): 6.66; pIC50 ([2]; Ca1u-6 (Kras^Q61K) cells): 6.60
Cc1ccc(NC(=O)c2ccnc(C(F)(F)F)c2)cc1-c1cc(N(C)CCO)nc(C23CCOCC2C3)c1 (stereo not drawn) [Compound 2] | 8.57 | 5.96 | 5.64 |  | pIC50 [1, 5]: 6.68
Cc1ccc(NC(=O)c2ccnc(C(F)(F)F)c2)cc1-c1cc(NCCO)nc(C23CCOCC2C3)c1 (stereo not drawn) [Compound 3] | 8.77 | 5.85 | 5.64 |  | pIC50 [1, 5]: 6.72
Cc1ccc(NC(=O)c2ccnc(C(F)F)c2)cc1-c1cc(OCCO)nc(C23CCOCC2C3)c1 (stereo not drawn) [Compound 5] | 9.00 | 5.34 | 5.59 | 6.77 | 
Cc1ccc(NC(=O)c2ccnc(C(C)(F)F)c2)cc1-c1cc(OCCO)nc(C23CCOCC2C3)c1 (stereo not drawn) [Compound 6] | 9.05 | 6.00 | 6.22 | 6.66 | 
Cc1ccc(NC(=O)c2ccnc(C(F)(F)F)c2)cc1-c1cc(SCCO)nc(C23CCOCC2C3)c1 (stereo not drawn) [Compound 7] | 8.60 |  |  |  | 
Cc1ccc(NC(=O)c2ccnc(C(F)(F)F)c2)cc1-c1cc(C23CCOCC2C3)cc(OCCO)n1 (stereo not drawn) [Compound 8] | 8.96 | 6.00 | 5.96 | 6.46 | 
Cc1ccc(NC(=O)c2ccnc(C(F)(F)F)c2)cc1-c1cc(OC[C@H](O)CO)nc(C23CCOCC2C3)c1 (stereo partly drawn) [Compound 9] | 8.92 | 5.19 | 6.10 | 6.74 | 
COC[C@@H](O)COc1cc(-c2cc(NC(=O)c3ccnc(C(F)(F)F)c3)ccc2C)cc(C23CCOCC2C3)n1 (stereo partly drawn) [Compound 10] | 8.60 | 5.15 | 5.28 |  | 
Cc1ccc(NC(=O)c2ccnc(C(F)(F)F)c2)cc1-c1cc(OCCO)nc(C23CCOCC2C3(F)F)c1 (stereo not drawn) [Compound 11] | 8.55 | 5.96 | 6.10 | 6.37 | 
Cc1ccc(NC(=O)c2ccnc(C(F)(F)F)c2)cc1-c1cc(N2CC(O)C2)nc(C23CCOCC2C3)c1 (stereo not drawn) [Compound 13] |  | 6.70 | 6.70 | 6.41 | 
Cc1ccc(NC(=O)c2ccnc(C(F)(F)F)c2)cc1-c1cc(OCCO)nc(C23CCOCC2(C#N)C3)c1 (stereo not drawn) [Compound 14] |  | 5.46 | 6.40 | 6.48 | 
Cc1ccc(NC(=O)c2ccnc(C(F)(F)F)c2)cc1-c1cc(OCC(C)(C)O)nc(C23CCOCC2C3)c1 (stereo not drawn) [Compound 15] |  | 5.33 | 6.05 | 6.48 | 
Cc1ccc(NC(=O)c2ccnc(C(F)(F)F)c2)cc1-c1cc(OCCO)nc([C@]23COC[C@H]2C3)c1 [Compound 16B] |  | 6.22 | 5.96 |  | pIC50 [1, 7]: 6.74; pIC50 ([2]; Homo sapiens, Calu-6, Ca1u-6 (Kras^Q61K) cells): 6.31; relative tumor proliferation rate T/C [3]: 11.4%; tumor growth inhibition rate TGI [3]: 99.1%; bioavailability ([4]; oral, intragastric 100 mg/kg versus intravenous 2 mg/kg, read-out: Bioavailability F): 131%; Tmax ([4]; po, intragastric administration 100 mg/kg, read-out: Maximum concentration time Tmax): 1 h; clearance ([4]; intravenous administration 2 mg/kg, read-out: Clearance rate Cl): 25.8 mL/min/kg; Vd ([4]; intravenous administration 2 mg/kg, read-out: Distribution volume Vd): 2.75 L/kg; half-life ([4]; intravenous administration 2 mg/kg, read-out: Half-life T1/2 (converted)): 1.43 h; AUC ([4]; po, intragastric administration 100 mg/kg): 178 µM·h; Cmax ([4]; po, intragastric administration 100 mg/kg, read-out: Maximum concentration Cmax): 25 µM; AUC ([4]; intravenous administration 2 mg/kg): 2.61 µM·h; C0 ([4]; intravenous administration 2 mg/kg, read-out: Initial concentration C0): 2.01 µM
Cc1ccc(NC(=O)c2ccnc(C(F)(F)F)c2)cc1-c1cc(OCCO)nc(C23COCC2C3)c1 (stereo not drawn) [Compound 16] |  | 5.89 | 5.66 |  | pIC50 [1, 7]: 6.80
